Assay: xn = mol fraction of the nth substance listed
Conditions: Gas, Vibrating tube method

S [hydrogen sulfide] + C
Conditions | mass density [kg/m3]
273.16 K, 19608 kPa, x2 = 0.714 | 336.94
273.16 K, 22152 kPa, x2 = 0.714 | 354.18
273.16 K, 22483 kPa, x2 = 0.714 | 356.27
273.17 K, 12519 kPa, x2 = 0.8197 | 177.81
273.18 K, 22828 kPa, x2 = 0.714 | 358.14
273.19 K, 21199 kPa, x2 = 0.714 | 347.78
273.19 K, 24981 kPa, x2 = 0.714 | 368.95
273.2 K, 20623 kPa, x2 = 0.714 | 344.02
273.2 K, 23590 kPa, x2 = 0.714 | 362.19
273.21 K, 209 kPa, x2 = 0.8685 | 1.7
273.21 K, 648 kPa, x2 = 0.8685 | 5.39
273.21 K, 21506 kPa, x2 = 0.714 | 349.84
273.22 K, 26410 kPa, x2 = 0.714 | 375.25
273.23 K, 20100 kPa, x2 = 0.714 | 340.42
273.23 K, 25533 kPa, x2 = 0.714 | 371.48
273.24 K, 1167 kPa, x2 = 0.8685 | 10
273.24 K, 1761 kPa, x2 = 0.8685 | 15.44
273.24 K, 27020 kPa, x2 = 0.714 | 377.85
273.25 K, 2240 kPa, x2 = 0.8685 | 19.97
273.25 K, 3776 kPa, x2 = 0.8685 | 35.41
273.25 K, 11361 kPa, x2 = 0.8685 | 140.37
273.25 K, 24591 kPa, x2 = 0.714 | 367.01
273.25 K, 26031 kPa, x2 = 0.714 | 373.67
273.25 K, 30481 kPa, x2 = 0.8685 | 300.13
273.26 K, 2770 kPa, x2 = 0.8685 | 25.12
273.26 K, 4666 kPa, x2 = 0.8685 | 45.13
273.26 K, 5086 kPa, x2 = 0.8685 | 49.93
273.26 K, 11062 kPa, x2 = 0.8685 | 135.65
273.26 K, 11726 kPa, x2 = 0.8685 | 146.08
273.26 K, 12002 kPa, x2 = 0.8685 | 150.33
273.26 K, 12322 kPa, x2 = 0.8685 | 155.19
273.26 K, 12637 kPa, x2 = 0.8685 | 159.86
273.26 K, 13040 kPa, x2 = 0.8685 | 165.72
273.26 K, 27255 kPa, x2 = 0.8685 | 285.03
273.26 K, 28276 kPa, x2 = 0.8685 | 290.05
273.26 K, 29372 kPa, x2 = 0.8685 | 295.19
273.27 K, 3280 kPa, x2 = 0.8685 | 30.25
273.27 K, 4207 kPa, x2 = 0.8685 | 40.03
273.27 K, 4225 kPa, x2 = 0.8685 | 40.23
273.27 K, 9149 kPa, x2 = 0.8685 | 105.29
273.27 K, 9851 kPa, x2 = 0.8685 | 116.33
273.27 K, 13466 kPa, x2 = 0.8685 | 171.7
273.27 K, 13771 kPa, x2 = 0.8685 | 175.85
273.27 K, 24569 kPa, x2 = 0.8685 | 270.52
273.27 K, 25361 kPa, x2 = 0.8685 | 275.02
273.27 K, 26319 kPa, x2 = 0.8685 | 280.21
273.28 K, 5512 kPa, x2 = 0.8685 | 54.98
273.28 K, 5933 kPa, x2 = 0.8685 | 60.12
273.28 K, 8496 kPa, x2 = 0.8685 | 95.31
273.28 K, 9596 kPa, x2 = 0.8685 | 112.28
273.28 K, 10137 kPa, x2 = 0.8685 | 120.88
273.29 K, 8136 kPa, x2 = 0.8685 | 89.96
273.29 K, 8809 kPa, x2 = 0.8685 | 100.05
273.29 K, 10446 kPa, x2 = 0.8685 | 125.82
273.29 K, 10749 kPa, x2 = 0.8685 | 130.66
273.29 K, 23690 kPa, x2 = 0.8685 | 265.29
273.3 K, 6333 kPa, x2 = 0.8685 | 65.17
273.3 K, 14847 kPa, x2 = 0.8685 | 189.62
273.31 K, 6712 kPa, x2 = 0.8685 | 70.1
273.31 K, 7200 kPa, x2 = 0.8685 | 76.68
273.31 K, 7483 kPa, x2 = 0.8685 | 80.6
273.31 K, 7817 kPa, x2 = 0.8685 | 85.33
273.31 K, 15329 kPa, x2 = 0.8685 | 195.37
273.31 K, 22905 kPa, x2 = 0.8685 | 260.37
273.32 K, 15811 kPa, x2 = 0.8685 | 200.85
273.32 K, 16120 kPa, x2 = 0.8685 | 204.24
273.32 K, 16817 kPa, x2 = 0.8685 | 211.55
273.33 K, 17352 kPa, x2 = 0.8685 | 216.85
273.33 K, 21405 kPa, x2 = 0.8685 | 250.29
273.34 K, 17978 kPa, x2 = 0.8685 | 222.75
273.34 K, 18233 kPa, x2 = 0.8685 | 225.06
273.35 K, 18773 kPa, x2 = 0.8685 | 229.81
273.35 K, 19531 kPa, x2 = 0.8685 | 236.12
273.36 K, 20692 kPa, x2 = 0.8685 | 245.12
273.37 K, 20048 kPa, x2 = 0.8685 | 240.23
273.37 K, 24085 kPa, x2 = 0.714 | 364.7
293.18 K, 239 kPa, x2 = 0.8685 | 1.86
293.18 K, 469 kPa, x2 = 0.8685 | 3.71
293.18 K, 2890 kPa, x2 = 0.8685 | 25.81
293.18 K, 8263 kPa, x2 = 0.8685 | 79.99
293.18 K, 8722 kPa, x2 = 0.8685 | 85.68
293.18 K, 9972 kPa, x2 = 0.8685 | 100.39
293.18 K, 12003 kPa, x2 = 0.8685 | 124.94
293.18 K, 12415 kPa, x2 = 0.8685 | 130.08
293.18 K, 12830 kPa, x2 = 0.8685 | 135.13
293.18 K, 13726 kPa, x2 = 0.8685 | 145.96
293.19 K, 792 kPa, x2 = 0.8685 | 6.46
293.19 K, 1341 kPa, x2 = 0.8685 | 11.22
293.19 K, 2300 kPa, x2 = 0.8685 | 20.14
293.19 K, 3396 kPa, x2 = 0.8685 | 30.35
293.19 K, 3988 kPa, x2 = 0.8685 | 35.82
293.19 K, 4428 kPa, x2 = 0.8685 | 40.25
293.19 K, 6909 kPa, x2 = 0.8685 | 65.4
293.19 K, 7335 kPa, x2 = 0.8685 | 70.05
293.19 K, 7786 kPa, x2 = 0.8685 | 74.96
293.19 K, 9097 kPa, x2 = 0.8685 | 90.09
293.19 K, 9534 kPa, x2 = 0.8685 | 95.16
293.19 K, 10368 kPa, x2 = 0.8685 | 105.2
293.19 K, 10794 kPa, x2 = 0.8685 | 110.28
293.19 K, 11183 kPa, x2 = 0.8685 | 115.06
293.19 K, 11608 kPa, x2 = 0.8685 | 120.16
293.19 K, 13230 kPa, x2 = 0.8685 | 140.02
293.19 K, 16228 kPa, x2 = 0.8685 | 174.96
293.19 K, 16699 kPa, x2 = 0.8685 | 180.07
293.19 K, 17682 kPa, x2 = 0.8685 | 190.29
293.2 K, 1820 kPa, x2 = 0.8685 | 15.41
293.2 K, 4887 kPa, x2 = 0.8685 | 44.78
293.2 K, 5494 kPa, x2 = 0.8685 | 50.99
293.2 K, 5964 kPa, x2 = 0.8685 | 55.59
293.2 K, 6411 kPa, x2 = 0.8685 | 60.21
293.2 K, 14242 kPa, x2 = 0.8685 | 152.42
293.2 K, 14579 kPa, x2 = 0.8685 | 156.48
293.2 K, 14924 kPa, x2 = 0.8685 | 160.62
293.2 K, 15365 kPa, x2 = 0.8685 | 165.51
293.2 K, 15806 kPa, x2 = 0.8685 | 170.31
293.2 K, 17183 kPa, x2 = 0.8685 | 185.14
293.2 K, 18163 kPa, x2 = 0.8685 | 195.16
293.2 K, 20932 kPa, x2 = 0.8685 | 220.42
293.2 K, 21495 kPa, x2 = 0.8685 | 224.99
293.2 K, 27629 kPa, x2 = 0.8685 | 265.96
293.2 K, 28496 kPa, x2 = 0.8685 | 270.59
293.21 K, 1117 kPa, x2 = 0.8685 | 9.2
293.21 K, 23505 kPa, x2 = 0.8685 | 240.2
293.21 K, 25865 kPa, x2 = 0.8685 | 255.77
293.21 K, 26669 kPa, x2 = 0.8685 | 260.49
293.21 K, 29415 kPa, x2 = 0.8685 | 275.27
293.21 K, 29995 kPa, x2 = 0.8685 | 278.16
293.21 K, 30419 kPa, x2 = 0.8685 | 280.17
293.22 K, 20355 kPa, x2 = 0.8685 | 215.54
293.22 K, 24254 kPa, x2 = 0.8685 | 245.19
293.22 K, 25052 kPa, x2 = 0.8685 | 250.52
